Measurements from patent US7629294B2, “Pyrazolopyrimidines” (Bayer CropScience LP, priority 2004, dated 2009).

Test: physchem
Conditions: logP

Compound | chromatographic logP
CC(C)C(C)Nc1c(-c2ccc(F)cc2Cl)c(Cl)nc2c(-c3ccccn3)cnn12 (stereo not shown) [compound 538] | 3.54
COC(=O)C(C(=O)OC)c1ccc(C#N)cc1Cl [dimethyl(2-chloro-4-cyanophenyl)malonate] | 2.34
COC(=O)c1cnn2c(Cl)c(-c3ccc(C#N)cc3Cl)c(Cl)nc12 [methyl 5,7-dichloro-6-(2-chloro-4-cyanophenyl)pyrazolo[1,5-a]pyrimidine-3-carboxylate] | 2.85
CCC(C)c1c(Cl)nc2c(C(=O)OC)cnn2c1Cl (stereo not shown) [methyl 5,7-dichloro-6-(sec-butyl)-pyrazolo[1,5-a]pyrimidine-3-carboxylate] | 3.13
COC(=O)c1cnn2c(Cl)c(C3CCCC3)c(Cl)nc12 [methyl 5,7-dichloro-6-cyclopentylpyrazolo[1,5-a]pyrimidine-3-carboxylate] | 3.31
CCC(C)c1c(Cl)nc2c(C(=O)OC)cnn2c1N[C@H](C)C(C)C (stereo partly drawn) [methyl 5-chloro-6-(sec-butyl)-7-[(R)-3-methyl-2-butylamino][1,5-a]pyrimidine-3-carboxylate] | 4.49
CCC(C)c1c(Cl)nc2c(C(=O)OC)cnn2c1N[C@@H](C)C(C)C (stereo partly drawn) [methyl 5-chloro-6-(sec-butyl)-7-[(S)-3-methyl-2-butylamino]pyrazolo[1,5-a]pyrimidine-3-carboxylate] | 4.49
CCC(C)c1c(Cl)nc2c(C(=O)OC)cnn2c1N[C@@H](C)C(F)(F)F (stereo partly drawn) [methyl 5-chloro-6-(sec-butyl)-7-[(S)-3-trifluoroisopropylamino]pyrazolo[1,5-a]pyrimidine-3-carboxylate] | 3.76
COC(=O)c1cnn2c(N[C@@H](C)C(C)C)c(C3CCCC3)c(Cl)nc12 [methyl 5-chloro-6-cyclopentyl-7-[(S)-3-methyl-2-butylamino]pyrazolo[1,5-a]pyrimidine-3-carboxylate] | 4.72
COC(=O)c1cnn2c(N[C@@H](C)C(F)(F)F)c(C3CCCC3)c(Cl)nc12 [methyl 5-chloro-6-cyclopentyl-7-[(S)-3-trifluoroisopropylamino]pyrazolo[1,5-a]pyrimidine-3-carboxylate] | 3.89

Same assay, conditions: logPs

Compound | chromatographic logP
CNS(=O)(=O)c1cnn2c(NC(C)C(C)(C)C)c(-c3ccc(F)cc3Cl)c(Cl)nc12 (stereo not shown) [N-methyl-5-chloro-6-(2-chloro-4-fluorophenyl)-7-(1,2,2-trimethylpropylamino)pyrazolo[1,5-a]pyrimidine-3-sulphonamide] | 4.09
CC(C)C(C)Nc1c(-c2ccc(F)cc2Cl)c(Cl)nc2c(/C=N/NC(N)=S)cnn12 (stereo not shown) [Thiosemicarbazone of 5-chloro-6-(2-chloro-4-fluorophenyl)-7-(1,2-dimethyl-propylamino)pyrazolo[1,5-a]pyrimidine-3-carbaldehyde] | 3.75
Cc1nnc(-c2cnn3c(NC(C)C(C)C)c(-c4ccc(F)cc4Cl)c(Cl)nc23)[nH]1 (stereo not shown) [XXXVII, [5-chloro-6-(2-chloro-4-fluorophenyl)-3-(5-methyl-[1,3,4]triazol-2-yl)pyrazolo[1,5-a]pyrimidin-7-yl](1,2-dimethylpropyl)-amine] | 2.91
CC(C)C(C)Nc1c(-c2ccc(F)cc2Cl)c(Cl)nc2c(-c3ccccn3)cnn12 (stereo not shown) [XXXVIII, [5-chloro-6-(2-chloro-4-fluorophenyl)-3-pyridin-2-ylpyrazolo[1,5-a]pyrimidin-7-yl](1,2-dimethylpropyl)amine] | 3.54
COC(=O)c1cnn2c(N[C@H](C)C(C)C)c(-c3c(F)cccc3Cl)c(Cl)nc12 [methyl 5-chloro-6-(2-chloro-6-fluorophenyl)-7-{[(1R)-1,2-dimethylpropyl]amino}pyrazolo[1,5-a]pyrimidine-3-carboxylate] | 4.12
COC(=O)c1cnn2c(O)c(-c3c(F)cccc3Cl)c(O)nc12 [methyl 6-(2-chloro-6-fluorophenyl)-5,7-dihydroxypyrazolo[1,5-a]pyrimidine-3-carboxylate] | 0.55
COC(=O)c1cnn2c(NC(C)C(C)C)c(-c3sccc3C)c(OC)nc12 (stereo not shown) [methyl 7-(1,2-dimethylpropylamino)-5-methoxy-6-(3-methylthiophen-2-yl)pyrazolo[1,5-a]-pyrimidine-3-carboxylate] | 4.6

Test: logP (HPLC)
Conditions: not given

Compound | chromatographic logP
CCOP(=O)(OCC)c1cnn2c(NC(C)C(C)(C)C)c(-c3ccc(F)cc3Cl)c(Cl)nc12 (stereo not shown) [Example XXIII, diethyl {5-chloro-6-(2-chloro-4-fluorophenyl)-7-[(1,2,2-trimethylpropyl)-amino]pyrazolo[1,5-a]pyrimidin-3-yl}phosphonate] | 4.48
CCOP(=O)(O)c1cnn2c(NC(C)C(C)(C)C)c(-c3ccc(F)cc3Cl)c(Cl)nc12 (stereo not shown) [Example XXIV, ethyl hydrogen {5-chloro-6-(2-chloro-4-fluorophenyl)-7-[(1,2,2-trimethylpropyl)-amino]pyrazolo[1,5-a]pyrimidin-3-yl}phosphonate] | 3.01
